Measured values taken from patent US9980943B2, “Methods of treating muscular dystrophy” (BOARD OF REGENTS OF THE NEVADA SYSTEM OF HIGHER EDUCATION, …, priority 2013, dated 2018).

Experiments:
Assay type in all cases: cell-based, mouse
[1] = system: α7 integrin (LacZ reporter in α7βgal+/− myoblasts); assay: Myoblast α7+/LacZ integrin FDG assay (Burkin assay in myoblasts, 96-well); settings: α7+/LacZ myoblasts, 96-well
[2] = system: α7 integrin (LacZ reporter in α7+/LacZ myotubes); assay: Myotube α7 integrin FDG assay (Burkin assay in myotubes, 96-well); settings: myotubes
[3] = system: β-galactosidase in CMV-LacZ C2C12 myoblasts; assay: CMV-LacZ secondary screen in C2C12 myoblasts (β-Gal stabilizing assay); settings: CMV-LacZ C2C12 myoblasts
From the text: In order to determine compounds that acted to stabilize β-gal in myogenic cells, a CMV-LacZ C2C12 cell line was used in a secondary screen. The EGFP gene from the pEGFP (Clontech) vector was replaced by LACZ PCR product with digests of the vector/PCR product performed using EcoRI (NEB) and NotI (NEB) and ligated using T4 DNA Ligase (NEB) following standard procedures to produce the CMV-LACZ vector. The LACZ gene was generated by PCR from the pBK-RSV (Stratagene) vector using primers LACZ EcoRI F- and LACZ NotI R-. The CMV-LACZ vector was then digested with AfIII (NEB) to linearize the construct, which was then transfected in C2C12 myoblasts using Lipofectamine 2000 (Invitrogen) following the manufacturer's instructions. […] Clonal lines were selected and screened for βgal levels using the myoblast FDG assay.
The assays were used the original 96-well format and new dose-response curves for myoblasts (N=3-6 replicates for each data point), myotubes (N=3-6 replicates for data point), and CMV-LacZ secondary assay (N=2 replicates for each data point) using concentrations of 0.5 μM, 1 μM, 5 μM, 10 μM, 20 μM, and 40 μM (Tables 9-16).

[4] = system: β-galactosidase in CMV-LacZ C2C12 myotubes; assay: CMV-LacZ secondary screen in C2C12 myotubes (β-Gal stabilizing assay); settings: C2C12 CMV-LacZ myotubes, fold relative to DMSO
Outline: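 β-Gal level was the read-out, measured in a clonal C2C12 line expressing LacZ from a CMV promoter. Dose-response curves used six concentrations, 0.5 μM up to 40 μM, with duplicate points.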

With `CCC(CC)C(=O)Nc1c(C(=O)N2CCN(c3ccccc3)CC2)oc2ccccc12` [MLS001116079-01] the “Burkin Assay in Myoblasts, signal relative to DMSO” value ([1]; 0.5 uM) was 1.03, the “Burkin Assay in Myoblasts, signal relative to DMSO” value ([1]; 1 uM) was 1.087 and the “Burkin Assay in Myoblasts, signal relative to DMSO” value ([1]; 5 uM) was 1.025. The “Burkin Assay in Myoblasts, signal relative to DMSO” value ([1]; 10 uM) was 0.9749, the “Burkin Assay in Myoblasts, signal relative to DMSO” value ([1]; 20 uM) was 1.244 and the “Burkin Assay in Myoblasts, signal relative to DMSO” value ([1]; 40 uM) was 1.34. The “Burkin Assay in Myotubes, α7 integrin LacZ reporter signal relative to DMSO” value ([2]; 0.5 uM) was 0.9524, the “Burkin Assay in Myotubes, α7 integrin LacZ reporter signal relative to DMSO” value ([2]; 1 uM) was 0.9502 and the “Burkin Assay in Myotubes, α7 integrin LacZ reporter signal relative to DMSO” value ([2]; 5 uM) was 0.9559. For the same molecule, the “Burkin Assay in Myotubes, α7 integrin LacZ reporter signal relative to DMSO” value ([2]; 10 uM) was 0.9012, the “Burkin Assay in Myotubes, α7 integrin LacZ reporter signal relative to DMSO” value ([2]; 20 uM) was 0.9027 and the “Burkin Assay in Myotubes, α7 integrin LacZ reporter signal relative to DMSO” value ([2]; 40 uM) was 0.9686. The “CMV-LACZ in Myoblasts (β-galactosidase activity relative to DMSO)” value ([3]; 0.5 uM) was 1.0950, the “CMV-LACZ in Myoblasts (β-galactosidase activity relative to DMSO)” value ([3]; 1 uM) was 1.0492 and the “CMV-LACZ in Myoblasts (β-galactosidase activity relative to DMSO)” value ([3]; 5 uM) was 0.9306. For the same molecule, the “CMV-LACZ in Myoblasts (β-galactosidase activity relative to DMSO)” value ([3]; 10 uM) was 1.0228, the “CMV-LACZ in Myoblasts (β-galactosidase activity relative to DMSO)” value ([3]; 20 uM) was 1.0448 and the “CMV-LACZ in Myoblasts (β-galactosidase activity relative to DMSO)” value ([3]; 40 uM) was 0.9078. For the same molecule, the “CMV-LACZ in Myotubes, signal relative to DMSO” value ([4]; 0.5 uM) was 1.3543, the “CMV-LACZ in Myotubes, signal relative to DMSO” value ([4]; 1 uM) was 0.8152 and the “CMV-LACZ in Myotubes, signal relative to DMSO” value ([4]; 5 uM) was 1.0227. The “CMV-LACZ in Myotubes, signal relative to DMSO” value ([4]; 10 uM) was 1.1374, the “CMV-LACZ in Myotubes, signal relative to DMSO” value ([4]; 20 uM) was 0.9063 and the “CMV-LACZ in Myotubes, signal relative to DMSO” value ([4]; 40 uM) was 1.0811.
`O=C(Nc1ccccc1Cl)C1CCCN1C(=O)OCc1ccccc1` (stereo not drawn) [MLS001030621-01] was tested, and the “Burkin Assay in Myoblasts, signal relative to DMSO” value ([1]; 0.5 uM) was 1.004, the “Burkin Assay in Myoblasts, signal relative to DMSO” value ([1]; 1 uM) was 1.158 and the “Burkin Assay in Myoblasts, signal relative to DMSO” value ([1]; 5 uM) was 1.15. For the same molecule, the “Burkin Assay in Myoblasts, signal relative to DMSO” value ([1]; 10 uM) was 1.161, the “Burkin Assay in Myoblasts, signal relative to DMSO” value ([1]; 20 uM) was 1.001 and the “Burkin Assay in Myoblasts, signal relative to DMSO” value ([1]; 40 uM) was 1.01. For the same molecule, the “Burkin Assay in Myotubes, α7 integrin LacZ reporter signal relative to DMSO” value ([2]; 0.5 uM) was 0.9724, the “Burkin Assay in Myotubes, α7 integrin LacZ reporter signal relative to DMSO” value ([2]; 1 uM) was 0.9493 and the “Burkin Assay in Myotubes, α7 integrin LacZ reporter signal relative to DMSO” value ([2]; 5 uM) was 0.999. The “Burkin Assay in Myotubes, α7 integrin LacZ reporter signal relative to DMSO” value ([2]; 10 uM) was 0.9429, the “Burkin Assay in Myotubes, α7 integrin LacZ reporter signal relative to DMSO” value ([2]; 20 uM) was 0.7954 and the “Burkin Assay in Myotubes, α7 integrin LacZ reporter signal relative to DMSO” value ([2]; 40 uM) was 0.7203. The “CMV-LACZ in Myoblasts (β-galactosidase activity relative to DMSO)” value ([3]; 0.5 uM) was 0.7081, the “CMV-LACZ in Myoblasts (β-galactosidase activity relative to DMSO)” value ([3]; 1 uM) was 1.0531 and the “CMV-LACZ in Myoblasts (β-galactosidase activity relative to DMSO)” value ([3]; 5 uM) was 1.0494. The “CMV-LACZ in Myoblasts (β-galactosidase activity relative to DMSO)” value ([3]; 10 uM) was 1.1844, the “CMV-LACZ in Myoblasts (β-galactosidase activity relative to DMSO)” value ([3]; 20 uM) was 1.0307 and the “CMV-LACZ in Myoblasts (β-galactosidase activity relative to DMSO)” value ([3]; 40 uM) was 0.9063. The “CMV-LACZ in Myotubes, signal relative to DMSO” value ([4]; 0.5 uM) was 0.7844, the “CMV-LACZ in Myotubes, signal relative to DMSO” value ([4]; 1 uM) was 0.7970 and the “CMV-LACZ in Myotubes, signal relative to DMSO” value ([4]; 5 uM) was 0.9872. The “CMV-LACZ in Myotubes, signal relative to DMSO” value ([4]; 10 uM) was 1.0546, the “CMV-LACZ in Myotubes, signal relative to DMSO” value ([4]; 20 uM) was 0.9024 and the “CMV-LACZ in Myotubes, signal relative to DMSO” value ([4]; 40 uM) was 1.0141.
